Source: PubChem BioAssay (NCI)
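The compound was tested at five concentrations on cells cultured in 96-well plates, with a 48-hour exposure period. The concentration for full growth arrest is given as TGI.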

Tests used:
Experiment in all cases: DTP human tumour cell line panel, 48 h
786-0 renal = system: 786-0 renal
A498 renal = system: A498 renal
A549 NSCLC = system: A549 NSCLC
ACHN renal = system: ACHN renal
BT-549 breast = system: BT-549 breast
CAKI-1 renal = system: CAKI-1 renal
CCRF-CEM leukemia = system: CCRF-CEM leukemia
COLO 205 colon = system: COLO 205 colon
DU-145 prostate = system: DU-145 prostate
EKVX NSCLC = system: EKVX NSCLC
HCT-116 colon = system: HCT-116 colon
HCT-15 colon = system: HCT-15 colon
HL-60(TB) leukemia = system: HL-60(TB) leukemia
HOP-62 NSCLC = system: HOP-62 NSCLC
HOP-92 NSCLC = system: HOP-92 NSCLC
HS 578T breast = system: HS 578T breast
HT29 colon = system: HT29 colon
IGROV1 ovarian = system: IGROV1 ovarian
K-562 leukemia = system: K-562 leukemia
KM12 colon = system: KM12 colon
LOX IMVI melanoma = system: LOX IMVI melanoma
M14 melanoma = system: M14 melanoma
MALME-3M melanoma = system: MALME-3M melanoma
MCF7 breast = system: MCF7 breast
MDA-MB-231 breast = system: MDA-MB-231 breast
MDA-MB-435 = system: MDA-MB-435
MDA-N = system: MDA-N
MOLT-4 leukemia = system: MOLT-4 leukemia
NCI-H226 lung = system: NCI-H226 lung
NCI-H23 lung = system: NCI-H23 lung
NCI-H460 lung = system: NCI-H460 lung
NCI/ADR-RES ovarian = system: NCI/ADR-RES ovarian
OVCAR-3 ovarian = system: OVCAR-3 ovarian
OVCAR-4 ovarian = system: OVCAR-4 ovarian
OVCAR-5 ovarian = system: OVCAR-5 ovarian
OVCAR-8 ovarian = system: OVCAR-8 ovarian
PC-3 prostate = system: PC-3 prostate
RPMI-8226 leukemia = system: RPMI-8226 leukemia
RXF 393 renal = system: RXF 393 renal
SF-268 CNS = system: SF-268 CNS
SF-295 CNS = system: SF-295 CNS
SF-539 CNS = system: SF-539 CNS
SK-MEL-28 melanoma = system: SK-MEL-28 melanoma
SK-MEL-5 melanoma = system: SK-MEL-5 melanoma
SK-OV-3 ovarian = system: SK-OV-3 ovarian
SN12C renal = system: SN12C renal
SNB-19 CNS = system: SNB-19 CNS
SNB-75 CNS = system: SNB-75 CNS
SR leukemia = system: SR leukemia
SW-620 colon = system: SW-620 colon
T-47D breast = system: T-47D breast
TK-10 renal = system: TK-10 renal
U251 CNS = system: U251 CNS
UACC-257 melanoma = system: UACC-257 melanoma
UACC-62 melanoma = system: UACC-62 melanoma
UO-31 renal = system: UO-31 renal
HCC-2998 colon = system: HCC-2998 colon
NCI-H522 lung = system: NCI-H522 lung
SK-MEL-2 melanoma = system: SK-MEL-2 melanoma

Measured: TGI

Cc1[nH]c2nccn2c(=O)c1CCO
not listed: HCC-2998 colon | NCI-H522 lung | SK-MEL-2 melanoma
> 10 µM: all other assays above

CNC(=O)CNC(=O)N(C[C@@H]1CCCN1C(=O)[C@H](CC(C)C)NC(=O)OC(C)(C)C)C(C)C
not listed: HOP-92 NSCLC | SF-539 CNS | TK-10 renal | UACC-257 melanoma
> 100 µM: all other assays above

COc1cc(S(=O)(=O)Nc2ccc(-c3csc(N4C(=O)CSC4c4ccccc4O)n3)cc2)ccc1Cl (stereo not drawn)
88.2 µM: SK-MEL-28 melanoma
82.1 µM: HOP-92 NSCLC
52.8 µM: NCI-H460 lung
85.5 µM: EKVX NSCLC
97.6 µM: UACC-257 melanoma
61.1 µM: COLO 205 colon
41.4 µM: HCC-2998 colon
49.8 µM: HL-60(TB) leukemia
92.2 µM: SNB-75 CNS
55.6 µM: NCI-H522 lung
not listed: A498 renal | HS 578T breast | MDA-MB-231 breast | RXF 393 renal | T-47D breast | TK-10 renal | U251 CNS
> 100 µM: all other assays above

CN(C)CCCn1c(Cn2nc3ccccc3n2)nc2cc(C(F)(F)F)ccc21
64.7 µM: MCF7 breast
31.2 µM: NCI-H522 lung
33 µM: MDA-MB-435
43.5 µM: SK-MEL-2 melanoma
39.5 µM: CCRF-CEM leukemia
24.4 µM: MALME-3M melanoma
35.6 µM: MDA-N
73.2 µM: UO-31 renal
41.7 µM: A498 renal
89 µM: NCI-H460 lung
54.1 µM: KM12 colon
45.6 µM: MOLT-4 leukemia
35.1 µM: T-47D breast
60.9 µM: SK-OV-3 ovarian
30.2 µM: SK-MEL-5 melanoma
16.5 µM: HL-60(TB) leukemia
40.8 µM: UACC-62 melanoma
89.9 µM: HOP-92 NSCLC
34.6 µM: LOX IMVI melanoma | SK-MEL-28 melanoma
33.5 µM: UACC-257 melanoma
28.6 µM: COLO 205 colon
36.6 µM: K-562 leukemia
80.6 µM: TK-10 renal
21.2 µM: HCC-2998 colon
29 µM: M14 melanoma
46.2 µM: HT29 colon
35.3 µM: 786-0 renal
not listed: RPMI-8226 leukemia | SF-539 CNS | SNB-75 CNS | SR leukemia
> 100 µM: all other assays above

N=C(CC(=O)Nc1ccccn1)c1ccccc1
not listed: HCC-2998 colon
> 100 µM: all other assays above

O=c1[nH]c(=O)n(C2CC(O)C(CO)O2)cc1Br (stereo not drawn)
not listed: SR leukemia
> 100 µM: all other assays above

COc1ccc(-c2nnc3n(C)c4ccccc4n3c2=O)cc1
82.9 µM: RXF 393 renal
84.9 µM: U251 CNS
56.2 µM: MDA-MB-231 breast
60.4 µM: SNB-75 CNS
84.3 µM: SF-295 CNS
37.5 µM: HOP-62 NSCLC
not listed: K-562 leukemia | OVCAR-3 ovarian | RPMI-8226 leukemia | SK-OV-3 ovarian | UACC-62 melanoma
> 100 µM: all other assays above
